Reference: US20240294551A1 (AMGEN INC., priority 2022, published 2024)
Like-named read-outs stand apart in the source and are kept apart here.

Legend:
[1] = target: His-tagged KRAS G12D protein (Homo sapiens (Human), UniProt P01116, G12D); assay: KRAS G12D TR-FRET Assay; assay type: binding
Summary of the method: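 His-tagged KRAS G12D (diluted to 20 nM in pH 7.4 HEPES buffer with 10 mM MgCl2 and 10 μM GDP) was preincubated with titrated compound for 30 min at room temperature. Biotinylated KRPep-2d peptide (diluted to 20 nM) was then added for 1 h, and displacement was monitored by TR-FRET.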

[2] = target: GDP-bound KRAS protein (aa 1-169), containing both G12D and C118A amino acid substitutions (Homo sapiens (Human), UniProt P01116, C118A/G12D); assay: KRAS G12D Coupled Nucleotide Exchange Assay; assay type: biochemical
GDP-bound KRAS protein (aa 1-169), containing both G12D and C118A amino acid substitutions, sequence (P01116 other isoform, or with tags, fused parts or gaps G12D/C118A): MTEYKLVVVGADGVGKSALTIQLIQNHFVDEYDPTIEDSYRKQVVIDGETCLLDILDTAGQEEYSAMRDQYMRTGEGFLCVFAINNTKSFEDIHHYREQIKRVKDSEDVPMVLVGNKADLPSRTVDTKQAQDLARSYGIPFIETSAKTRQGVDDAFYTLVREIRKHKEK

[3] = tested on: Phosphorylation of ERK1/2 in AsPC-1 cells; assay: Phospho-ERK1/2 MSD Assay; assay type: cell-based, human; conditions: Homo sapiens, ASPC1, 2 h
Summary of the method: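 Read-out: MSD electrochemiluminescent detection of phosphorylated ERK1/2 in whole-cell lysates, fitted to a 4-parameter logistic curve for IC50. Prior to lysis, AsPC-1 cells (25,000 per well) received a 2 h compound dose-response at 37 °C.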

AsPC-1 cells = assay: AsPC-1 CTG Assay (CellTiter-Glo cell viability); assay type: cell-based, human; conditions: Homo sapiens, ASPC1, 72 h, first value of the cell, read-out: G12D/C/V Cell Proliferation CTG (72 h) AsPC-1
Summary of the method: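 Human pancreatic AsPC-1 or colon SW620 cells in RPMI 1640 with 10% FBS, seeded overnight, then exposed to serially diluted compound for 72 h at 37 °C. CellTiter-Glo luminescence normalized to DMSO control; IC50 from a 4-parameter logistic model.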

MIA PaCa-2 cells = assay: MIA PaCa-2 CTG Assay (CellTiter-Glo cell viability); assay type: cell-based, human; conditions: Homo sapiens, second value of the cell
Summary of the method: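 Human pancreatic carcinoma cells in RPMI 1640 with 10% FBS, seeded at 1.67E+04 cells/mL and left overnight, were treated with serially diluted compound for 72 h at 37° C, 5% CO2. Viability was read by CellTiter-Glo luminescence normalized to DMSO; IC50 came from a 4-parameter logistic fit.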

[4] = read-out: KRAS G12D Binding IC50
[5] = read-out: KRAS G12D Coupled Exchange IC50
[6] = read-out: 2 h p-ERK (AsPC-1 cells), IC50
[7] = Mia PaCa-2, 72 h, read-out: G12D/C/V Cell Proliferation CTG (72 h) Mia PaCa-2
[8] = TR-FRET, read-out: KRAS G12D Binding
[9] = 2 hours compound pre-incubation, read-out: KRAS G12D Coupled Exchange
[10] = read-out: 2 h p-ERK (AsPC-1 cells)
[11] = MIA PaCa-2 cells (G12C), 72 h, read-out: G12D/C/V Cell Proliferation CTG (72 h) MIA PaCa-2

His-tagged KRAS G12D protein, sequence (P01116 other isoform, or with tags, fused parts or gaps G12D): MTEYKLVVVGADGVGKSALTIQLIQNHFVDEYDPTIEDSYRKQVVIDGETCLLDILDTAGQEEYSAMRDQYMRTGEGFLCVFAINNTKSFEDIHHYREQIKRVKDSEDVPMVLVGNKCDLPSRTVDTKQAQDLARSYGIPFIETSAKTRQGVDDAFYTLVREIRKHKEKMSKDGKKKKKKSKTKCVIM

## CN1C[C@H](F)C[C@H]1COc1nc2c3cnc(c(F)c3n1)-c1c(c(Cl)cc3[nH]ncc13)CCCCC(=O)O[C@@H]1CCCCN2C1 [Example 85, (26R)-18-chloro-32-fluoro-4-(((2S,4R)-4-fluoro-1-methyl-2-pyrrolidinyl)methoxy)-25-oxa-1,3,5,9,14,15-hexaazahexacyclo[24.4.1.1~6,10~.0~2,7~.0~11,19~.0~12,16~]dotriaconta-2,4,6,8,10(32),11,13,16,18-nonaen-24-one]
[1]; [4]
  IC50: 5 nM
[2]; [5]
  IC50: 4 nM
[3]; [6]
  IC50: 58 nM
AsPC-1 cells; AsPC-1, 72 h
  IC50: 480 nM
MIA PaCa-2 cells; [7]
  IC50: 400 nM

## CN1C[C@H](F)C[C@H]1COc1nc2c3cnc(c(F)c3n1)-c1c(c(Cl)cc3[nH]ncc13)CCCOC(=O)O[C@]1(C)COCCN2C1 [Example 318, (26S)-18-chloro-32-fluoro-4-(((2S,4R)-4-fluoro-1-methyl-2-pyrrolidinyl)methoxy)-26-methyl-23,25,28-trioxa-1,3,5,9,14,15-hexaazahexacyclo[24.4.1.1~6,10~.0~2,7~.0~11,19~.0~12,16~]dotriaconta-2,4,6,8,10(32),11,13,16,18-nonaen-24-one]
[1]; [4]
  IC50: 5 nM
[2]; [5]
  IC50: 3 nM
[3]; [6]
  IC50: 35.1 nM
AsPC-1 cells; AsPC-1, 72 h
  IC50: 183 nM
MIA PaCa-2 cells; [7]
  IC50: 33 nM

## CN1CCC[C@H]1COc1nc2c3cnc(c(F)c3n1)-c1c(c(Cl)cc3[nH]ncc13)CCc1cnc(o1)[C@@H](O)[C@@H]1CCCN2C1 [Example 394, (17S,18R)-9-chloro-31-fluoro-25-(((2S)-1-methylpyrrolidin-2-yl)methoxy)-33-oxa-5,6,15,22,24,26,30-heptaazaheptacyclo[25.3.1.1~13,16~.1~18,22~.0~2,10~.0~3,7~.0~23,28~]tritriaconta-1(31),2,4,7,9,13,15,23,25,27,29-undecaen-17-ol]
[1]; [8]
  IC50: 5 nM
[2]; [9]
  IC50: 2 nM
[3]; [10]
  IC50: 3 nM
AsPC-1 cells; AsPC-1 cells (G12D), 72 h
  IC50: 58 nM
MIA PaCa-2 cells; [11]
  IC50: 10 nM

## CO[C@@H]1C[C@@H](COc2nc3c4cnc(c(F)c4n2)-c2c(c(Cl)cc4[nH]ncc24)CCOC(=O)OC2CC4(CCCN3C4)C2)N(C)C1 (mixture of isomers) [Example 307]
[1]; [4]
  IC50: 4 nM
[2]; [5]
  IC50: 2 nM
[3]; [6]
  IC50: 12 nM
AsPC-1 cells; AsPC-1, 72 h
  IC50: 134 nM
MIA PaCa-2 cells; [7]
  IC50: 62 nM

## O=C1CCCc2c(F)ccc3cccc(c23)-c2ncc3c(nc(OC[C@@]45CCCN4C[C@H](F)C5)nc3c2F)N2CC[C@H]3CCN1[C@H]3C2 [Example 72, (27S,31R)-18,33-difluoro-4-(((2R,7aS)-2-fluorotetrahydro-1H-pyrrolo[1,2-a]pyrrol-7a(5H)-yl)methoxy)-1,3,5,9,24-pentaazaheptacyclo[22.5.2.1˜6,10˜.1˜11,15˜.0˜2,7˜.0˜19,32˜.0˜27,31˜]tritriaconta-2,4,6,8,10(33),11,13,15(32),16,18-decaen-23-one]
[1]; [4]
  IC50: 3 nM
[2]; [5]
  IC50: 1 nM
[3]; [6]
  IC50: 16 nM
AsPC-1 cells; AsPC-1, 72 h
  IC50: 230 nM
MIA PaCa-2 cells; [7]
  IC50: 200 nM

## O=C1CCCCc2c(Cl)cc3[nH]ncc3c2-c2ncc3c(nc(OC[C@@]45CCCN4C[C@H](F)C5)nc3c2F)N2CCC[C@@H](C1)C2 [Example 372]
[1]; [8]
  IC50: 3 nM
[2]; [9]
  IC50: 2 nM
[3]; [10]
  IC50: 4.4 nM
AsPC-1 cells; AsPC-1 cells (G12D), 72 h
  IC50: 17 nM
MIA PaCa-2 cells; [11]
  IC50: 20 nM

## CN(C)CC1(COc2nc3c4cnc(c(F)c4n2)-c2cc(O)cc4ccc(F)c(c24)CCCC(=O)N[C@]2(C)CCCN3C2)CC1 [Example 22, (15R)-8-((1-((Dimethylamino)methyl)cyclopropyl)methoxy)-22,31-difluoro-27-hydroxy-15-methyl-3,7,9,11,16-pentaazahexacyclo[19.7.1.1˜2,6˜.1˜11,15˜.0˜5,10˜.0˜25,29˜]hentriaconta-1(28),2(31),3,5,7,9,21,23,25(29),26-decaen-17-one bis(2,2,2-trifluoroacetate)]
[1]; [4]
  IC50: 3 nM
[2]; [5]
  IC50: 1 nM
[3]; [6]
  IC50: 5 nM
AsPC-1 cells; AsPC-1, 72 h
  IC50: 108 nM
MIA PaCa-2 cells; [7]
  IC50: 10 nM

## O=C1OCCc2c(Cl)cc3[nH]ncc3c2-c2ncc3c(nc(OC[C@@]45CCCN4C[C@H](F)C5)nc3c2F)N2CCCCC(CO1)C2 (some centres unmarked) [Example 222]
[1]; [4]
  IC50: 3 nM
[2]; [5]
  IC50: 2 nM
[3]; [6]
  IC50: 9.4 nM
AsPC-1 cells; AsPC-1, 72 h
  IC50: 287 nM
MIA PaCa-2 cells; [7]
  IC50: 52 nM

## Fc1c2ncc3c(nc(OC[C@@]45CCCN4C[C@H](F)C5)nc13)N1CCCC[C@](F)(COCCCCc3c(Cl)cc4[nH]ncc4c3-2)C1 [Example 398, (26R)-18-chloro-26,32-difluoro-4-(((2R,7aS)-2-fluorotetrahydro-1H-pyrrolo[1,2-a]pyrrol-7a(5H)-yl)methoxy)-24-oxa-1,3,5,9,14,15-hexaazahexacyclo[24.4.1.1~6,10~.0~2,7~.0~11,19~.0~12,16~]dotriaconta-2,4,6,8,10(32),11,13,16,18-nonaene]
[1]; [8]
  IC50: 4 nM
[2]; [9]
  IC50: 2 nM
[3]; [10]
  IC50: 26.8 nM
AsPC-1 cells; AsPC-1 cells (G12D), 72 h
  IC50: 35 nM
MIA PaCa-2 cells; [11]
  IC50: 170 nM

## Fc1c2ncc3c(nc(OC[C@@]45CCCN4C[C@H](F)C5)nc13)N1CCCC[C@@](F)(COCCCCc3c(Cl)cc4[nH]ncc4c3-2)C1 [Example 399, (26S)-18-chloro-26,32-difluoro-4-(((2R,7aS)-2-fluorotetrahydro-1H-pyrrolo[1,2-a]pyrrol-7a(5H)-yl)methoxy)-24-oxa-1,3,5,9,14,15-hexaazahexacyclo[24.4.1.1~6,10~.0~2,7~.0~11,19~.0~12,16~]dotriaconta-2,4,6,8,10(32),11,13,16,18-nonaene]
[1]; [8]
  IC50: 4 nM
[2]; [9]
  IC50: 2 nM
[3]; [10]
  IC50: 25.9 nM
AsPC-1 cells; AsPC-1 cells (G12D), 72 h
  IC50: 44 nM
MIA PaCa-2 cells; [11]
  IC50: 105 nM

## O=C1OCCCc2c(Cl)cc3[nH]ncc3c2-c2ncc3c(nc(OC[C@@]45CCCN4C[C@H](F)C5)nc3c2F)N2CCCC[C@](CF)(C2)O1 [Example 340, (26R)-18-chloro-32-fluoro-26-(fluoromethyl)-4-(((2R,7aS)-2-fluorotetrahydro-1H-pyrrolo[1,2-a]pyrrol-7a(5H)-yl)methoxy)-23,25-dioxa-1,3,5,9,14,15-hexaazahexacyclo[24.4.1.1~6,10~.0~2,7~.0~11,19~.0~12,16~]dotriaconta-2,4,6,8,10(32),11,13,16,18-nonaen-24-one]
[1]; [4]
  IC50: 4 nM
[2]; [5]
  IC50: 1 nM
[3]; [6]
  IC50: 2.5 nM
AsPC-1 cells; AsPC-1, 72 h
  IC50: 42 nM
MIA PaCa-2 cells; [7]
  IC50: 17 nM

## CN1[C@H](COc2nc3c4cnc(c(F)c4n2)-c2c(c(Cl)cc4[nH]ncc24)CCCOC(=O)O[C@@H]2COCCN3C2)C[C@@H]2C[C@@H]21 [Example 330, (26S)-18-chloro-32-fluoro-4-(((1S,3S,5S)-2-methyl-2-azabicyclo[3.1.0]hexan-3-yl)methoxy)-23,25,28-trioxa-1,3,5,9,14,15-hexaazahexacyclo[24.4.1.1~6,10~.0~2,7~.0~11,19~.0~12,16~]dotriaconta-2,4,6,8,10(32),11,13,16,18-nonaen-24-one]
[1]; [4]
  IC50: 4 nM
[2]; [5]
  IC50: 2 nM
[3]; [6]
  IC50: 20 nM
AsPC-1 cells; AsPC-1, 72 h
  IC50: 128 nM
MIA PaCa-2 cells; [7]
  IC50: 54 nM

## CN1CCC[C@H]1COc1nc2c3cnc(c(F)c3n1)-c1c(c(Cl)cc3[nH]ncc13)CCCOCC(=O)N1CC[C@@H]3CCN2C[C@@H]31 [Example 267, (29S,33R)-18-chloro-34-fluoro-4-(((2S)-1-methyl-2-pyrrolidinyl)methoxy)-23-oxa-1,3,5,9,14,15,26-heptaazaheptacyclo[24.5.2.1~6,10~.0~2,7~.0~11,19~.0~12,16~.0~29,33~]tetratriaconta-2,4,6(34),7,9,11,13,16,18-nonaen-25-one]
[1]; [4]
  IC50: 4 nM
[2]; [5]
  IC50: 2 nM
[3]; [6]
  IC50: 33.5 nM
AsPC-1 cells; AsPC-1, 72 h
  IC50: 80 nM
MIA PaCa-2 cells; [7]
  IC50: 121 nM
